Data reported in US4619929A, “Phenylpiperazine derivatives of hetarylphenols and hetarylanilines, their preparation, and therapeutic agents containing these compounds” (BASF Aktiengesellschaft, priority 1981, dated 1986).
Where two headings read alike, the source gives them in different places.

How the values were obtained:
[1] = Hypotensive action on rats under urethane narcosis, blood pressure measured in the carotid artery (ED 20%); type: in vivo, Sprague-Dawley rats; conditions: for Hypotensive effect R.A. (relative activity; chlorpromazine = 1.00) / ED20: rat; for Hypotensive side effect, in words: versus chlorpromazine; for Separation between sedative action and hypotensive action versus chlorpromazine: in words; for Hypotensive action in words: blood pressure lowering doses versus chlorpromazine: narcotized rats
Description: The blood pressure was measured in the carotid artery. The substance was administered either by introduction into a jugular vein (as an aqueous solution, at the rate of 1 ml/kg) or intraperitoneally as a suspension in tragacanth (at the rate of 10 ml/kg). The ED 20%, i.e. the dose which produces a 20% lowering of the blood pressure, was determined from the linear regression of log dose (mg/kg) and relative lowering of the blood pressure (Δ %).

[2] = Sedative action: orientation hypermotility of mice induced by a new environment (ED 50%); type: in vivo, female NMRI mice; conditions: for Sedative effect R.A. (relative activity; chlorpromazine = 1.00) / ED50: mouse, oral administration; for Inhibition of the orientation hypermotility of mice (sedative-neuroleptic action), in words / Sedative action compared with chlorpromazine, in words: mice
Description: The substance was administered orally to 4-8 groups each comprising 3 female NMRI mice. The orientation hypermotility induced by a new environment was determined photoelectrically, 30 minutes after administration of the substance, over a period of 30 minutes. The ED 50%, i.e. the dose which produces 50% reduction in orientation hypermotility compared to placebo-treated control […], is determined.

[3] = Table 2, defined by formula drawing 9, hypotensive effect i.v.
[4] = Table 2, intravenous (i.v.), read-out: Hypotensive effect ED 20%
[5] = Table 2, read-out: Sedative effect ED 50%
[6] = Table 1, quotient defined by formula drawing 8 (sedative ED 50% mouse oral, hypotensive ED 20% rat i.v.)
[7] = Table 1, intravenous administration
[8] = Table 1, intravenous administration, read-out: Hypotensive effect ED 20% (dose which reduces the blood pressure by 20%)
[9] = Table 1, read-out: Sedative effect ED 50% (dose which reduces the motility by 50%)
[10] = Table 2, defined by formula drawing 9, hypotensive effect i.p.
[11] = Table 2, intraperitoneal (i.p.)
[12] = ip, Table 2, intraperitoneal (i.p.), read-out: Hypotensive effect ED 20%

Row | SMILES | Q [1, 3] | Hypotensive effect R.A. (relative activity; chlorpromazine = 1.00) ([1]; Table 2, intravenous (i.v.)) | ED20 [1, 4] [mg/kg] | Hypotensive side effect, in words [1] | Sedative effect R.A. (relative activity; chlorpromazine = 1.00) ([2]; Table 2) | ED50 [2, 5] [mg/kg] | Inhibition of the orientation hypermotility of mice (sedative-neuroleptic action), in words [2] | Sedative action compared with chlorpromazine, in words [2] | Q [1, 6] | Hypotensive effect R.A. (relative activity; chlorpromazine = 1.00) [1, 7] | ED20 [1, 8] [mg/kg] | Separation between sedative action and hypotensive action versus chlorpromazine [1] | Hypotensive action in words: blood pressure lowering doses versus chlorpromazine [1] | Sedative effect R.A. (relative activity; chlorpromazine = 1.00) ([2]; Table 1) | ED50 [2, 9] [mg/kg] | Q [1, 10] | Hypotensive effect R.A. (relative activity; chlorpromazine = 1.00) [1, 11] | ED20 [1, 12] [mg/kg]
1 | Fc1ccc(N2CCN(CCCNc3ccc(-n4ccnc4)cc3)CC2)cc1 [Example 15, 1-[4-(Imidazol-1-yl)-phenylamino]-3-[4-(4-fluorophenyl)-piperazin-1-yl]-propane] | 0.16 | 0.003 | 10 | non-hypotensive action up to doses of 1 or 10 mg/kg | 1.3 | 1.62 | powerful inhibition of the orientation hypermotility of mice | clearly surpassed | – | – | – | – | – | – | – | – | – | –
2 | COc1ccccc1N1CCN(CCCOc2cccc(-c3nnc(C)o3)c2)CC1 [Example 7, 1-[3-(5-Methyl-1,3,4-oxadiazol-2-yl)-phenoxy]-3-[4-(2-methoxyphenyl)-piperazin-1-yl]-propane] | – | – | – | – | – | – | – | – | 312 | 2.17 | 0.0012 | substantially greater | significantly lower than in the case of chlorpromazine | 0.56 | 3.74 | – | – | –
3 | COc1ccccc1N1CCN(CCCOc2cccc(-c3nnco3)c2)CC1 [Example 6, 1-[3-(1,3,4-Oxadiazol-2-yl)-phenoxy]-3-[4-(2-methoxyphenyl)-piperazin-1-yl]-propane] | – | – | – | – | – | – | – | – | 417 | 3.38 | 0.0077 | substantially greater | significantly lower than in the case of chlorpromazine | 0.66 | 3.21 | – | – | –
4 | CN(C)CCCN1c2ccccc2Sc2ccc(Cl)cc21 [chlorpromazine, reference compound] | 81.0 | 1.0 | 0.026 | observed even at low doses | 1.0 | 2.11 | – | – | 81 | 1.00 | 0.026 | – | – | 1.00 | – | 12.9 | 1.0 | 0.164
5 | Fc1ccc(N2CCN(CCCNc3ccc(-n4cncn4)cc3)CC2)cc1 [Example 14, 1-[4-(1,2,4-Triazol-1-yl)-phenylamino]-3-[4-(4-fluorophenyl)-piperazin-1-yl]-propane] | – | – | – | non-hypotensive action up to doses of 1 or 10 mg/kg | 2.59 | 0.818 | powerful inhibition of the orientation hypermotility of mice | clearly surpassed | – | – | – | – | – | – | – | 0.08 | 0.02 | 10
6 | Fc1ccc(N2CCN(CCCOc3ccc(-n4ccnc4)cc3)CC2)cc1 [Example 10] | 3.0 | 0.03 | 1 | non-hypotensive action up to doses of 1 or 10 mg/kg | 0.69 | 3.05 | powerful inhibition of the orientation hypermotility of mice | almost achieved | – | – | – | – | – | – | – | – | – | –
7 | COc1ccccc1N1CCN(CCCOc2ccccc2-c2nnco2)CC1 [Example 1] | – | – | – | – | – | – | – | – | 2,050 | 3.25 | 0.008 | substantially greater | significantly lower than in the case of chlorpromazine | 0.13 | 16.4 | – | – | –
8 | COc1ccccc1N1CCN(CCCOc2ccc(-c3nnco3)cc2)CC1 [Example 11, 1-[4-(1,3,4-Oxadiazol-2-yl)-phenoxy]-3-[4-(2-methoxyphenyl)-piperazin-1-yl]-propane] | – | – | – | – | – | – | – | – | 307 | 3.71 | 0.007 | substantially greater | significantly lower than in the case of chlorpromazine | 0.98 | 2.15 | – | – | –
9 | COc1ccccc1N1CCN(CCCOc2ccccc2-c2nnc(C)o2)CC1 [Example 3, 1-[2-(5-Methyl-1,3,4-oxadiazol-2-yl)-phenoxy]-3-[4-(2-methoxyphenyl)-piperazin-1-yl]-propane] | – | – | – | – | – | – | – | – | 534 | 0.68 | 0.0384 | substantially greater | – | 0.10 | 20.5 | – | – | –
